Experimental data published in publication PMC3689638, “Cell cycle-dependent activity of the novel dual PI3K-MTORC1/2 inhibitor NVP-BGT226 in acute leukemia” (Molecular Cancer, 2013).

Test system: AKT phosphorylation (Ser473, Thr308)
Assay: western immunoblot of AKT signaling, MOLM14 or K562 cells
Assay type: cell-based, human
From the text: For comparative analysis, additional lysates from cells treated with an ABL1 or FLT3 tyrosine kinase inhibitor (imatinib for K562 BCR-ABL1 cells, sunitinib for MOLM14 FLT3 ITD cells) as well as rapamycin were used.
Rabbit anti-panAKT, panFLT3, panABL1 or anti-cleaved caspase 3 antibodies were used at a 1:500 to 1:1000 dilution. Rabbit anti-phospho-AKT antibodies detecting phosphorylated isoforms of T308-AKT, S473-AKT, S807/811-RB, S575-ULK1, T389-p70S6K, Y694-STAT5, FLT3, ABL1 or T202/Y204-ERK1/2 were used at a 1:250 to 1:1000 dilution. An anti-actin mouse monoclonal antibody was used as a loading control. All antibodies, if not otherwise indicated, were purchased from Cell Signaling Technology.
Cell pellets were lysed with 100 to 150 μl of protein lysis buffer (50 mmol/L Tris, 150 mmol/L NaCl, 1% NP40, 0.25% deoxycholate with added inhibitors aprotinin, AEBSF, leupeptin, pepstatin, sodium orthovanadate, and sodium pyruvate, respectively phosphatase inhibitor cocktails „2“ and „1“ or „3“ (Sigma, St. Louis, MO). Protein from cell lysates (75 to 200 μg protein) was used for whole cell protein analysis after denaturing by Western immunoblot assays using a BioRad Criterion system. Nonspecific binding was blocked by incubating the blots in nonfat dry milk or BSA. Primary antibodies were incubated for one hour or over night, followed by several washes of Tris-buffered saline (TBS) containing 0.005% Tween 20. The appropriate secondary antibody was applied for 30‘, followed by several washes. Antibody-reactive proteins were detected using a LI-COR Odyssey® fluorescence optical system.

## CO[C@H]1C[C@@H]2CC[C@@H](C)[C@@](O)(O2)C(=O)C(=O)N2CCCC[C@H]2C(=O)O[C@H]([C@H](C)C[C@@H]2CC[C@@H](O)[C@H](OC)C2)CC(=O)[C@H](C)/C=C(\C)[C@@H](O)[C@@H](OC)C(=O)[C@H](C)C[C@H](C)/C=C/C=C/C=C/1C [rapamycin]
  phosphorylation of AKT (immunoblot): did not suppress AKT phosphorylation
